Data published in patent US11447504B2, “Macrocyclic chlorine substituted indole derivatives” (Bayer Aktiengesellschaft, priority 2017, dated 2022).
pEC50, pIC50: −log10 of the molar value. Where a name gives a salt, the structure may show the parent alone. Read-outs that look alike come from different tables or passages of the source.

How the values were obtained:
BCL-XL = BCL-XL (Homo sapiens (Human), UniProt Q07817); experiment: Protein-protein interaction assay BCL-XL/Bad BH3 peptide (BCL-XL Assay, TR-FRET); format: binding; conditions: read-out: BCL-XL Assay IC50 (median)
BCL-XL, sequence (Q07817 other isoform, or with tags, fused parts or gaps): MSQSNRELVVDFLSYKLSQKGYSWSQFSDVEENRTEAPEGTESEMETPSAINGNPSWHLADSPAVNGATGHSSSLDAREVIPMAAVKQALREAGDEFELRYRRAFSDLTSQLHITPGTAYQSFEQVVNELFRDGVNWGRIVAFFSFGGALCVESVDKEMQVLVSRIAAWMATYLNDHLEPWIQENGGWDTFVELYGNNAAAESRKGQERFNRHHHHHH
Protocol: Assay 2 Protein-Protein Interaction Assay: BCL-XL/Bad BH3 Peptide (BCL-XL Assay)
The dose-dependent inhibition by the compounds described in this invention of the interaction between BCL-XL and the BH3 domain of Bad (both human) was determined using a steady state binding competition assay with time-resolved fluorescence energy transfer (TR-FRET) readout.
For that, 100-fold concentrated DMSO solutions were prepared by serial dilutions (1:3.4) of a 2 mM stock solution in a clear, 384-well microtiter plate (Greiner Bio-One, Frickenhausen, Germany). From there, 50 nl were transferred in a dark test plate (Greiner Bio-One, Frickenhausen, Germany). […] This was followed by a 10-minute incubation step at 22° C. for pre-equilibration of the putative complex between His-BCL-XL and the compounds.
The mixture was incubated in the dark for one hour at 22° C. and then overnight at 4° C. The formation of BCL-XL/Bad complexes was determined by measuring the resonance energy transfer of the anti-His- Eu-cryptate antibody to the streptavidin-XL665 present in the reaction.
The resulting data (ratio) were normalized, taking 0% inhibition as the mean value of control measurements (usually 32 data points) where all reagents were included. In this case 50 nl DMSO were used instead of compounds. […] IC50 values were determined by regression analysis based on a 4 parameter equation (minimum, maximum, IC50, Hill; Y=Max+(Min−Max)/(1+(X/IC50)^Hill) using the Screener Software (Genedata).

SUDHL5 = experiment: Induction of caspase-3/7 activity (Assay 4), SUDHL5; format: cell-based; conditions: SUDHL5 cells
How it was run: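 DLBCL cells treated with compounds for 3 hours at 37° C. Caspase-3/7 activity measured by Caspase-Glo 3/7 luminescence, with medium-only background subtracted.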

[1] = target: full length endogenous MCL1 protein (Homo sapiens (Human), UniProt Q07820); experiment: PIxEL: protein-protein interaction in permeabilized cells by ELISA (Assay 5); format: cell-based; conditions: permeabilized RKO cells, biotin-BIM BH3 peptide, read-out: PIxEL IC50 (median)
full length endogenous MCL1 protein, sequence (Q07820 whole entry): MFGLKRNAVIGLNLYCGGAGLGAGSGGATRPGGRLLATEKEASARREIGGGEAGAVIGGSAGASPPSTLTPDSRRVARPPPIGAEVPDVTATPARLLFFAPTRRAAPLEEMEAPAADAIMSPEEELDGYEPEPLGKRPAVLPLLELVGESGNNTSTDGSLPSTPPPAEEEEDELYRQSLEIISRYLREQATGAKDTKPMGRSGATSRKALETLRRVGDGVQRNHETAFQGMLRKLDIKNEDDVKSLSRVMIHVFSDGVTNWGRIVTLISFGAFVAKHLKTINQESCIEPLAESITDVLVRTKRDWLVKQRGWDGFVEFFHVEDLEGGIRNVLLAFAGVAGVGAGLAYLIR
Protocol: PIxEL: Protein-Protein Interaction in Permeabilized Cells by ELISA
Most MCL1 protein molecules are localized at the mitochondria outer membrane and sequester pro-apoptotic proteins through binding of their BCL2 homology domain 3 (BH3 domain). MEB buffer (150 mM mannitol, 10 mM HEPES pH 7.5, 50 mM KCl, 20 μM EDTA, 20 μM EGTA, 5 mM potassium succinate, 0.1% protease-free BSA (SIGMA) with low dose digitonin (0.002%) permeabilizes plasma membrane while leaves live mitochondria, where MCL1 maintains its native localization and conformation. Unlike biophysical assays (e.g. TR-FRET) that use truncated recombinant MCL1 protein, this assay uses full length endogenous MCL1 protein at mitochondria outer membrane. It measures the interaction between MCL1 protein and biotinylated BIM BH3 peptide. Compounds can compete with BIM BH3 peptide to bind to MCL1 protein. This serum free assay measures the affinity between MCL1 protein and compound in permeabilized cells, therefore it is not affected by serum binding and cell permeability, and can measure the intrinsic compound affinity.
On day 1, RKO colon cancer cell line cells were plated at 0.8 million cells/ml, 100 μl/well in 96-well flat bottom TC plates (Corning). MCL1 antibody (Santa Cruz sc-12756) were diluted at 200 fold (final concentration 1 μg/ml) in carbonate buffer (Thermo Fisher Scientific, pH 9.6), and 50 μl of diluted antibody was added to each well of high bind ELISA plates ([…]). Each plate was tapped to make sure liquid covering entire bottom of wells and incubate at 37° C. overnight.
On the second day, MCL1 antibody was washed from ELISA plate. 250 μl Odyssey® Blocking Buffer (PBS) (Li-Cor) was added to each well, incubated at room temperature for at least 1 hour, then washed once with 250 μl 1×PBST. Plates with RKO cells were gently washed once with 100 μl/well PBS, once with 100 μl/well MEB buffer without digitonin, then 100 μl of MEB buffer with 0.002% digitonin was gently added to each well. Compounds were added with HP Tecan compound dispenser in 3-fold dilution series, highest dose 30 μM, 10-dose per compound in quadruplicates. Biotin-BIM peptide (synthesized by 21st Century) was added with HP Tecan compound dispenser at 0.2 μM immediately after the addition of compounds. Plates were rocked for 1 h at room temperature. Then MEB buffer was aspirated and 50 μl of CHAPS buffer (50 mM Tris-Cl, pH 7.4, 150 mM NaCl, 1% CHAPS, 1 mM EDTA, 1 mM EGTA, complete protease inhibitors (Roche), PhosSTOP (Roche)) was added to each well. […]
On the third day, ELISA plates were washed once with 250 μl 1×PBST. […] Plates were shaken for 1 minute then luminescence was measured by Envision plate reader (HP). […] IC50 was calculated using Graphic Pad PRISM software.

HMC-1-8 = experiment: Antiproliferation assay 7, HMC-1-8; format: cell-based; conditions: HMC-1-8 cells, CellTiter-Glo, read-out: Antiproli HMC-1-8 IC50 median
How it was run: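 Proliferation over 72 h at 37° C was assessed by luminescent cell viability reagent, referenced to a day 0 plate.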

[2] = 3 hours, Caspase-Glo 3/7, read-out: Caspase SUDHL5 EC50 (median)

| Structure (SMILES) | pIC50 (BCL-XL) | pEC50 (SUDHL5; [2]) | pIC50 [1] | pIC50 (HMC-1-8; 72 hours) | pEC50 (SUDHL5; Homo sapiens, SU-DHL-5, 3 h, Caspase-Glo 3/7, read-out: Caspase SUDHL5 EC50 (median)) | IC50 ([1]; printed in uM) [µM] | pIC50 (HMC-1-8; 72 h) |
| --- | --- | --- | --- | --- | --- | --- | --- |
| Cc1c2c(nn1C)N(C)CCCCCn1c(C(=O)O)c(CCCOc3cccc4cc(F)ccc34)c3ccc(Cl)c-2c31 (racemic) [Example 74, (rac)-4-chloro-7-{3-[(6-fluoronaphthalen-1-yl)oxy]propyl}-2,3,15-trimethyl-10,11,12,13,14,15-hexahydro-2H-pyrazolo[4′,3′:4,5][1,6]diazacycloundecino[3,2,1-hi]indole-8-carboxylic acid] | < 4.70 | 6.15 | 6.67 | 5.27 |  |  |  |
| CCc1c2c(nn1C)N(C)CCCCCn1c(C(=O)O)c(CCCOc3cccc4cc(F)ccc34)c3ccc(Cl)c-2c31 (single isomer, unassigned; enantiomer 1) [Example 78, 4-chloro-3-ethyl-7-{3-[(6-fluoronaphthalen-1-yl)oxy]propyl}-2,15-dimethyl-10,11,12,13,14,15-hexahydro-2H-pyrazolo[4′,3′:4,5][1,6]diazacycloundecino[3,2,1-hi]indole-8-carboxylic acid-N-ethylethanamine Salt—Enantiomer 1] | < 4.70 | 6.40 | 7.43 | 5.62 |  |  |  |
| Cc1c2c(nn1C)N(C)CCCCCn1c(C(=O)O)c(CCCOc3cccc4ccccc34)c3ccc(Cl)c-2c31 (racemic) [Example 71, (rac)-4-chloro-2,3,15-trimethyl-7-{3-[(naphthalen-1-yl)oxy]propyl}-10,11,12,13,14,15-hexahydro-2H-pyrazolo[4′,3′:4,5][1,6]diazacycloundecino[3,2,1-hi]indole-8-carboxylic acid] | < 4.70 |  |  |  | 6.16 | > 30 | 4.66 |
| Cc1c2c(nn1C)N(C)CCCCCn1c(C(=O)O)c(CCCOc3cccc4cc(F)ccc34)c3ccc(Cl)c-2c31 [Example 75, (+)-4-chloro-7-{3-[(6-fluoronaphthalen-1-yl)oxy]propyl}-2,3,15-trimethyl-10,11,12,13,14,15-hexahydro-2H-pyrazolo[4′,3′:4,5][1,6]diazacycloundecino[3,2,1-hi]indole-8-carboxylic acid-N-ethylethanamine salt] | < 4.70 | 6.48 | 6.84 | 5.47 |  |  |  |
